Test results as given in ChEMBL document CHEMBL1132595, “Acquisition of high-affinity, SH2-targeted ligands via a spatially focused library” (J Med Chem, 1999).

What was measured:
[1] = Dissociation constant for binding to SH2 domain of Phospholipase C gamma
[2] = target: Tyrosine-protein kinase Lck (Homo sapiens, UniProt P06239); test: Dissociation constant for binding to SH2 domain of p56 lck tyrosine kinase
[3] = Dissociation constant for binding to SH2 domain of Phosphatidylinositol 3-kinase p85 subunit
[4] = target: Growth factor receptor-bound protein 2 (Homo sapiens, UniProt P62993); test: Dissociation constant for binding to SH2 domain of Growth factor receptor bound protein 2, Grb2
Chain of Growth factor receptor-bound protein 2 (P62993 whole entry, the tested form may be a part): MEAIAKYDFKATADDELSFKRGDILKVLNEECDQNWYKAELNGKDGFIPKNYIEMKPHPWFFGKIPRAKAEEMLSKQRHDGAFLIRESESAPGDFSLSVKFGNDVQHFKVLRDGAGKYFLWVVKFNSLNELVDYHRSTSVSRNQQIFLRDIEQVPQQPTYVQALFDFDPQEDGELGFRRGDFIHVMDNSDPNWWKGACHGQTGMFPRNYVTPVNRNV

[5] = target: Tyrosine-protein kinase Fyn (Homo sapiens, UniProt P06241); test: Dissociation constant for binding to SH2 domain of Fyn protein kinase
Chain of Tyrosine-protein kinase Fyn (P06241 whole entry, the tested form may be a part): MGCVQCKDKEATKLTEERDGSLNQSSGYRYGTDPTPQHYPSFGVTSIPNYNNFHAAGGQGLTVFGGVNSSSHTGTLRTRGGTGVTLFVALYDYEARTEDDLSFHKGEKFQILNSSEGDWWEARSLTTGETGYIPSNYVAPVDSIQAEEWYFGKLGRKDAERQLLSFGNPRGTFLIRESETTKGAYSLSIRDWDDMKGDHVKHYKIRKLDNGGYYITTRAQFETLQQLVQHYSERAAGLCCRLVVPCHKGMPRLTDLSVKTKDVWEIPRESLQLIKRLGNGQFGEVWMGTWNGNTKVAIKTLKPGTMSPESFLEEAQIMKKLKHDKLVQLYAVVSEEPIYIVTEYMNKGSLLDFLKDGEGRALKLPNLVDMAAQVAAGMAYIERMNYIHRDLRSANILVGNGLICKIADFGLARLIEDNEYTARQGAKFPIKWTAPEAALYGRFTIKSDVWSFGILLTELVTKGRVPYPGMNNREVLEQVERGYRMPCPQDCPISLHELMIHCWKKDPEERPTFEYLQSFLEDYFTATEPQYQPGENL

Chain of Tyrosine-protein kinase Lck (P06239 whole entry, the tested form may be a part): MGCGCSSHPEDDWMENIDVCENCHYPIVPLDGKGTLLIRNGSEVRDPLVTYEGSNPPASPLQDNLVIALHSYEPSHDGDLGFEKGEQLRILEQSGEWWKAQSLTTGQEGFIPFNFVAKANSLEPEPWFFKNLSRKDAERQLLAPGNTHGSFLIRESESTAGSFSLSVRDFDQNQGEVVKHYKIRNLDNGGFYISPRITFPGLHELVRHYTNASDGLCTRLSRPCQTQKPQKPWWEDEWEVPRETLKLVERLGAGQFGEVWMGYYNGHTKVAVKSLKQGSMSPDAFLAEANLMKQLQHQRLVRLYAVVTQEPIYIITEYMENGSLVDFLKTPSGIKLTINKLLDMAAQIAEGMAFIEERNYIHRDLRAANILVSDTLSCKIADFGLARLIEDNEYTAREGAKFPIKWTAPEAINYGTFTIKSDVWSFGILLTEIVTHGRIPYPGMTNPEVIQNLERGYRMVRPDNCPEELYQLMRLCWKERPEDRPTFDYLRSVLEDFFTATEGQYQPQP

Row | SMILES | Kd [1] | Kd [2] | Kd [3] | Kd [4] | Kd [5]
1 | O=C(O)Cc1cc(=O)oc2cc(O)ccc12 | 4900 nM | 35 nM | 9300 nM | 11300 nM | 150 nM
2 | O=C(O)c1ccsc1 | – | 260 nM | – | – | 700 nM
3 | O=C(O)c1cc(C(=O)O)cc(S(=O)(=O)O)c1 | – | 220 nM | – | – | 60 nM
4 | COc1ccc2c(CC(=O)O)cc(=O)oc2c1 | – | 2500 nM | – | – | –
5 | COc1cc(Br)c(C(=O)O)cc1OC | – | 240 nM | – | – | 500 nM
6 | O=C(O)CNC(=O)c1ccc([N+](=O)[O-])cc1 | – | 290 nM | – | – | 240 nM
